This note sets out measurements from patent US8399452B2, “Dibenzo[b,f][1,4]oxazepin-11-yl-N-hydroxybenzamides as HDAC inhibitors” (Methylgene Inc., priority 2006, dated 2013).

The target in one assay is histone deacetylase (HDAC Enzyme). Briefly: Inhibition of Histone Deacetylase Enzymatic Activity (Boc-Lys(Ac)-AMC, Fluor-de-Lys developer). To be noted: Table 9; read-out: HDAC Inhibition (IC50 μM) HDAC Enzyme. The class given is biochemical. As for the experimental part:
The following protocol is used to assay the compounds of the invention.
The mixture is pre-incubated for 5 minutes at room temperature. The reaction is started by bringing the temperature to 37° C. and adding 16 μl substrate. Total reaction volume is 50 μl.
In the Tables 8, 9 and 10, A≦[…]<B≦0.1 μM; 0.1 μM<C≦1 μM; and 1 μM<D≦10 μM.
As usually defined, the IC50 is the concentration needed to halve the response being measured. In the case of `O=C(NO)c1cnc(N2C[C@@H]3C[C@H]2CN3c2nccc(C(F)(F)F)n2)nc1` [N-hydroxy-2-((1S,4S)-5-(4-(trifluoromethyl)pyrimidin-2-yl)-2,5-diazabicyclo[2.2.1]heptan-2-yl)pyrimidine-5-carboxamide], the IC50 was below 0.05 µM.

As to `Cc1cccc(N2C[C@H]3C[C@@H]2CN3c2ccc(C(=O)NO)cc2)c1` [N-hydroxy-4-((1R,4R)-5-m-tolyl-2,5-diazabicyclo[2.2.1]heptan-2-yl)benzamide], the half-inhibitory concentration (IC50) lay in the range of 0.1 to 1 µM.

In the case of `CC(C)(C)OC(=O)N1C[C@@H]2C[C@H]1CN2c1ncc(C(=O)NO)cn1` [(1S,4S)-tert-butyl 5-(5-(hydroxycarbamoyl)pyrimidin-2-yl)-2,5-diazabicyclo[2.2.1]heptane-2-carboxylate], the IC50 was below 0.05 µM.

Turning to `N#Cc1cccc(N2C[C@@H]3C[C@H]2CN3c2ccc(C(=O)NO)cc2)c1` [4-((1S,4S)-5-(3-cyanophenyl)-2,5-diazabicyclo[2.2.1]heptan-2-yl)-N-hydroxybenzamide], the IC50 lay in the range of 0.1 to 1 µM.

For the compound `O=C(NO)c1cnc(N2C[C@@H]3C[C@H]2CN3Cc2ccccc2)nc1` [2-((1S,4S)-5-benzyl-2,5-diazabicyclo[2.2.1]heptan-2-yl)-N-hydroxypyrimidine-5-carboxamide], the IC50 fell in the range of 0.1 to 1 µM.

In the case of `O=C(NO)c1cnc(N2C[C@@H]3C[C@H]2CN3C(c2ccccc2)c2ccccc2)nc1` [2-((1S,4S)-5-benzhydryl-2,5-diazabicyclo[2.2.1]heptan-2-yl)-N-hydroxypyrimidine-5-carboxamide], the IC50 is below 0.05 µM.

With `O=C(NO)c1ccc(N2C[C@H]3C[C@@H]2CN3c2cc(C(F)(F)F)ccn2)cc1` [N-hydroxy-4-((1R,4R)-5-(4-(trifluoromethyl)pyridin-2-yl)-2,5-diazabicyclo[2.2.1]heptan-2-yl)benzamide], the concentration for half-maximal inhibition (IC50) lay within 1 to 10 µM.

Regarding `O=C(NO)c1ccc(N2C[C@@H]3C[C@H]2CN3c2cccc(C(F)(F)F)c2)cc1F` [2-fluoro-N-hydroxy-4-((1S,4S)-5-(3-(trifluoromethyl)phenyl)-2,5-diazabicyclo[2.2.1]heptan-2-yl)benzamide], the IC50 is 0.1 to 1 µM.

Turning to `Cc1ccc(N2CC3CC2CN3c2ccc(C(=O)NO)cn2)cc1` (stereo not drawn) [N-hydroxy-6-(5-p-tolyl-2,5-diazabicyclo[2.2.1]heptan-2-yl)nicotinamide], the IC50 was below 0.05 µM.

With `Cc1ccc(N2C[C@@H]3C[C@H]2CN3c2ncc(C(=O)NO)cn2)cc1` [N-hydroxy-2-((1S,4S)-5-p-tolyl-2,5-diazabicyclo[2.2.1]heptan-2-yl)pyrimidine-5-carboxamide], the IC50 was below 0.05 µM.

`O=C(NO)c1cnc(N2C[C@@H]3C[C@H]2CN3c2ccc(C(F)(F)F)cc2)nc1` [N-hydroxy-2-((1S,4S)-5-(4-(trifluoromethyl)phenyl)-2,5-diazabicyclo[2.2.1]heptan-2-yl)pyrimidine-5-carboxamide]: the IC50 is below 0.05 µM.

As to `O=C(NO)c1cnc(N2C[C@@H]3C[C@H]2CN3c2cccc(C(F)(F)F)c2)nc1` [N-hydroxy-2-((1S,4S)-5-(3-(trifluoromethyl)phenyl)-2,5-diazabicyclo[2.2.1]heptan-2-yl)pyrimidine-5-carboxamide], the IC50 is below 0.05 µM.

Consider `O=C(NO)c1cnc(N2C[C@@H]3C[C@H]2CN3c2ccc3nonc3c2)nc1` [2-((1S,4S)-5-(benzo[c][1,2,5]oxadiazol-5-yl)-2,5-diazabicyclo[2.2.1]heptan-2-yl)-N-hydroxypyrimidine-5-carboxamide], for which the IC50 was below 0.05 µM.

With `O=C(NO)c1cnc(N2C[C@@H]3C[C@H]2CN3c2cccc(F)c2)nc1` [2-((1S,4S)-5-(3-fluorophenyl)-2,5-diazabicyclo[2.2.1]heptan-2-yl)-N-hydroxypyrimidine-5-carboxamide], the IC50 is below 0.05 µM.

Still in this assay, the particulars now being: Table 10; read-out: HDAC Inhibition (IC50 μM) HDAC Enzyme.
With `CN1C(=O)CN=C(c2ccc(C(=O)NO)cc2)c2ccccc21` [(Z)-N-hydroxy-4-(1-methyl-2-oxo-2,3-dihydro-1H-benzo[e][1,4]diazepin-5-yl)benzamide], the concentration for half-maximal inhibition (IC50) is 0.1 to 1 µM.

For `O=C(/C=C/c1ccc(CNC2c3ccccc3CCc3ccccc32)cc1)NO`, the half-inhibitory concentration (IC50) lay within 0.05 to 0.1 µM.

`O=C(NO)c1cccc(COC2c3ccccc3CCc3ccccc32)c1`: the IC50 fell in the range of 0.1 to 1 µM.

Turning to `O=C(NO)c1cnc(N2C[C@H]3C[C@@]3(c3ccc(Cl)c(Cl)c3)C2)nc1` [2-((1R,5S)-1-(3,4-dichlorophenyl)-3-azabicyclo[3.1.0]hexan-3-yl)-N-hydroxypyrimidine-5-carboxamide], the IC50 lay within 0.1 to 1 µM.

As for `O=C(/C=C/c1ccc(CN2C(=O)CN=C(c3ccccc3)c3ccccc32)cc1)NO`, the IC50 lay within 0.05 to 0.1 µM.

In the case of `O=C(NO)c1ccc(OCCN2C(=O)c3ccccc3Oc3ccccc32)cc1Cl`, the IC50 was in the range of 1 to 10 µM.

As to `O=C(Cc1ccc(CN2c3ccccc3C=Cc3ccccc32)cc1)NO` [(Z)-2-(4-((5H-dibenzo[b,f]azepin-5-yl)methyl)phenyl)-N-hydroxyacetamide], the IC50 is 0.1 to 1 µM.

Consider `O=C(NO)c1cccc(CN2c3ccccc3Sc3ccccc32)c1` [3-((10H-phenothiazin-10-yl)methyl)-N-hydroxybenzamide], for which the IC50 was 0.1 to 1 µM.

For `O=C(NO)c1ccc(CN2C(=O)c3cccnc3N(C3CC3)c3ccccc32)cc1` [4-((11-cyclopropyl-5-oxo-5H-benzo[b]pyrido[2,3-e][1,4]diazepin-6(11H)-yl)methyl)-N-hydroxybenzamide], the half-inhibitory concentration (IC50) was in the range of 0.1 to 1 µM.

Turning to `O=C(NO)c1cnc(NC2c3ccccc3CCc3ccccc32)nc1`, the IC50 was below 0.05 µM.

In the case of `O=C(CCn1cc(CN2C(=O)c3ccccc3Oc3ccccc32)nn1)NO`, the IC50 lay in the range of 0.1 to 1 µM.

For `O=C(NO)c1cnc(N2C[C@@H]3C[C@]3(c3ccc(Cl)c(Cl)c3)C2)nc1`, the IC50 lay in the range of 0.1 to 1 µM.

On to `O=C(NO)c1ccc(Cn2c(=O)c3ccccc3c3ccccc32)cc1` [N-hydroxy-4-((6-oxophenanthridin-5(6H)-yl)methyl)benzamide], for which the IC50 was below 0.05 µM.

For `O=C(NO)c1cnc(N2CCn3c(nnc3-c3ccccc3)C2)nc1` [N-hydroxy-2-(3-phenyl-5,6-dihydro-[1,2,4]triazolo[4,3-a]pyrazin-7(8H)-yl)pyrimidine-5-carboxamide], the IC50 was below 0.05 µM.

With `O=C(NO)c1cnc(N2CCCN(c3ncc(C(F)(F)F)cc3Cl)CC2)nc1`, the IC50 is below 0.05 µM.

Consider `O=C(CCCCCN1C(=O)c2cccnc2N(C2CC2)c2ccccc21)NO` [6-(11-cyclopropyl-5-oxo-5H-benzo[b]pyrido[2,3-e][1,4]diazepin-6(11H)-yl)-N-hydroxyhexanamide], for which the IC50 was 0.1 to 1 µM.

Turning to `O=C(NO)c1cn2c(n1)sc1ccccc12`, the IC50 lay in the range of 0.1 to 1 µM.

With `O=C(CCCCCN1C(=O)c2ccccc2N(C2CC2)c2ccccc21)NO`, the IC50 was 0.1 to 1 µM.

In the case of `O=C(NO)c1cnc(NC2c3ccccc3-c3ccccc32)nc1` [2-(9H-fluoren-9-ylamino)-N-hydroxypyrimidine-5-carboxamide], the IC50 is 0.1 to 1 µM.

On to `O=C(CCCCCCCON=C1c2ccccc2CCc2ccccc21)NO`, for which the IC50 was in the range of 0.1 to 1 µM.

The assay is the same for the next values; noted with them: read-out: HDAC Inhibtion (IC50 μM) HDAC Enzyme.
Turning to `COc1ccc2c(c1)C(c1ccc(C(=O)NO)cc1)=Nc1ccccc1O2` [(Z)-N-hydroxy-4-(2-methoxydibenzo[b,f][1,4]oxazepin-11-yl)benzamide], the 50% inhibitory concentration (IC50) lay within 0.1 to 1 µM.

For the compound `O=C(NO)c1ccc(C2=Nc3cccnc3Oc3ccccc32)cc1` [(Z)-4-(benzo[f]pyrido[2,3-b][1,4]oxazepin-6-yl)-N-hydroxybenzamide], the IC50 is below 0.05 µM.

On to `O=C(NO)c1ccc(C2=Nc3ccccc3N(C3CC3)c3ccc(F)cc32)cc1` [(Z)-4-(5-cyclopropyl-2-fluoro-5H-dibenzo[b,e][1,4]diazepin-11-yl)-N-hydroxybenzamide], for which the IC50 was in the range of 0.05 to 0.1 µM.

With `CN(O)C(=O)c1ccc(C2=Nc3ccccc3N(C3CC3)c3ccccc32)cc1` [(Z)-4-(5-cyclopropyl-5H-dibenzo[b,e][1,4]diazepin-11-yl)-N-hydroxy-N-methylbenzamide], the IC50 is 1 to 10 µM.

On to `N#Cc1ccc2c(c1)N=C(c1ccc(C(=O)NO)cc1)c1ccccc1O2` [(Z)-4-(8-cyanodibenzo[b,f][1,4]oxazepin-11-yl)-N-hydroxybenzamide], for which the half-maximal inhibitory concentration (IC50) was in the range of 0.05 to 0.1 µM.

Consider `O=C(NO)c1ccc(C2=Nc3ccccc3Oc3ccccc32)s1` [(E)-5-(dibenzo[b,f][1,4]oxazepin-11-yl)-N-hydroxythiophene-2-carboxamide], for which the IC50 was below 0.05 µM.

Regarding `O=C(NO)c1ccc(C2=Nc3cncnc3N3CCc4cccc2c43)cc1`, the IC50 lay in the range of 0.1 to 1 µM.

Take `Cc1cccc2c1Oc1ccccc1N=C2c1ccc(C(=O)NO)cc1` [(Z)-N-hydroxy-4-(4-methyldibenzo[b,f][1,4]oxazepin-11-yl)benzamide]: the IC50 is 0.05 to 0.1 µM.

On to `O=C(NO)c1ccc(C2=Nc3ccccc3N(CC3CC3)c3ncccc32)cc1` [(Z)-4-(11-(cyclopropylmethyl)-11H-benzo[b]pyrido[2,3-e][1,4]diazepin-5-yl)-N-hydroxybenzamide], for which the IC50 is 1 to 10 µM.

On to `CC(C)N1c2ccccc2N=C(c2ccc(C(=O)NO)cc2)c2cccnc21` [(Z)-N-hydroxy-4-(11-isopropyl-11H-benzo[b]pyrido[2,3-e][1,4]diazepin-5-yl)benzamide], for which the IC50 is below 0.05 µM.

Turning to `COc1cccc2c1C(c1ccc(C(=O)NO)cc1)=Nc1ccccc1O2` [(Z)-N-hydroxy-4-(1-methoxydibenzo[b,f][1,4]oxazepin-11-yl)benzamide], the IC50 fell in the range of 0.1 to 1 µM.

`O=C(NO)c1ccc(C2=Nc3ccccc3Oc3ccccc32)c(F)c1` [(E)-4-(dibenzo[b,f][1,4]oxazepin-11-yl)-3-fluoro-N-hydroxybenzamide]: the IC50 is 1 to 10 µM.

On to `O=C(NO)c1ccc(C2=Nc3ccccc3Oc3c2cccc3C(F)(F)F)cc1` [(Z)-N-hydroxy-4-(4-(trifluoromethyl)dibenzo[b,f][1,4]oxazepin-11-yl)benzamide], for which the IC50 was below 0.05 µM.

For the compound `COCCN1c2ccccc2N=C(c2ccc(C(=O)NO)cc2)c2ccccc21` [(Z)-N-hydroxy-4-(5-(2-methoxyethyl)-5H-dibenzo[b,e][1,4]diazepin-11-yl)benzamide], the IC50 fell in the range of 0.1 to 1 µM.
